Test results as given in patent publication US8906904B2, “Alkoxy pyrazoles as soluble guanylate cyclase activators” (Boehringer Ingelheim International GmbH, priority 2012, dated 2014).
pEC50: −log10 of the molar value.

Columns and labels:
[1] = human liver microsome (HLM) metabolic stability assay; assay type: in vitro ADME; conditions: human liver microsomes; % hepatic blood flow calculated from t1/2
Procedure, shortened: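 Compounds at 1 uM incubated with human liver microsomes plus NADPH at 37° C., sampled at 0, 5, 15, 30 and 60 min into cold acetonitrile and quantified by LC/MS/MS. t½ from the slope of ln % remaining vs time; CLint, CLh and % Qh derived from it (n=1).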

[2] = target: T1, human soluble guanylate cyclase alpha 1 and beta 1 subunits (sGC) (Homo sapiens, UniProt Q02108+Q02153); assay: sGC cellular activator assay (cGMP, HTRF); assay type: cell-based; conditions: CHO cells stably expressing human sGC alpha 1/beta 1, preincubated with 40 microM ODQ; cGMP readout; assay run with and without 50% human serum, Table 2 does not say which
T1 construct: expressed in transfected cells; host or cells: Chinese hamster ovary (CHO) cells, stably transfected
T1 sequence (Q02108 1-690): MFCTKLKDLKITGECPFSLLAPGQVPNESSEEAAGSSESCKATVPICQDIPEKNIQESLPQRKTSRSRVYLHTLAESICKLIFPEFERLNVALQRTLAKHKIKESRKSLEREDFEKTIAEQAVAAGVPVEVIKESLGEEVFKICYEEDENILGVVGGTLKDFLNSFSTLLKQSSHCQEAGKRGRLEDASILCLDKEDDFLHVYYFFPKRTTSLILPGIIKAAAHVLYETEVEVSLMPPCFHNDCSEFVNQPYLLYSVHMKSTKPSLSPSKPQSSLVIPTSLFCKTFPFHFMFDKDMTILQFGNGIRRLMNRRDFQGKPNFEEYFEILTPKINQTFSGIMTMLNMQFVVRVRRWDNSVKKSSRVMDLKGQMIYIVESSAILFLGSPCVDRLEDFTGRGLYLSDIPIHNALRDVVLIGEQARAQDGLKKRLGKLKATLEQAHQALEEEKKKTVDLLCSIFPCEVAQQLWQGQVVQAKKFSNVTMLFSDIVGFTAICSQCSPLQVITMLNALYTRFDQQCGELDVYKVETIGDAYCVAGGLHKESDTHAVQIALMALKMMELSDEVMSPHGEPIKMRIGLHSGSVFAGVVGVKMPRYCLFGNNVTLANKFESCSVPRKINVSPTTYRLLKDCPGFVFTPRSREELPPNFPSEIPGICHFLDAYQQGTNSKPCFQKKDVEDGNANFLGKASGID
T1 sequence (Q02153 1-619): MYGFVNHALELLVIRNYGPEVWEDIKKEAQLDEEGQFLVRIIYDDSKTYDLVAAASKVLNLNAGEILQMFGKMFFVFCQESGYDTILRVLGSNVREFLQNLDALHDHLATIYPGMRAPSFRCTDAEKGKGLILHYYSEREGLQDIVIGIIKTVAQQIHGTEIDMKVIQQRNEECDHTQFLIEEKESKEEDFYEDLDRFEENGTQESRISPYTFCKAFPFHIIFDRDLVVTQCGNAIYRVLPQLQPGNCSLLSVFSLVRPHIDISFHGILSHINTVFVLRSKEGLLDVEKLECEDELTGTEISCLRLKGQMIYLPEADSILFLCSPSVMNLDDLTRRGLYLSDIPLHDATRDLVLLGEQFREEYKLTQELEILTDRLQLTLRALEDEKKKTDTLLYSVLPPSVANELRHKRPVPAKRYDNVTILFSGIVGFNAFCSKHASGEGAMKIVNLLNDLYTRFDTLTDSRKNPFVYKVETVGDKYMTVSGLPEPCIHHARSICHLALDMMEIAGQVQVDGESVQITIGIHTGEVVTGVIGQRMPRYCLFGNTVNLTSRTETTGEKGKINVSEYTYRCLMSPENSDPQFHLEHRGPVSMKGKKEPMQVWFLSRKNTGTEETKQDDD
Procedure, shortened: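 First, CHO-sGC (human α1β1) cells get 1 h ODQ at 40 microM with IBMX and 0.1% BSA. Finally, cGMP is quantified by HTRF and EC50 computed.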

| SMILES | HLM (% Qh) [1] [% Qh] | pEC50 [2] |
| --- | --- | --- |
| COc1c(C(=O)O)cnn1-c1cccc(-c2cccc(C)c2OCc2ccc3c(c2)C(C)(C)CN(C2COC2)C3)n1 [Compound 10] | 30 | 7.80 |
| Cc1cccc(-c2cccc(-n3ncc(C(=O)O)c3OC(C)C)n2)c1OCc1ccc2c(c1)CCN([C@H]1CCCOC1)C2 [Compound 115] | 25 | 7.17 |
| COc1c(C(=O)O)cnn1-c1cccc(-c2cccc(C)c2OCc2ccc3c(c2)CCN(CC(C)(C)C)C3)n1 [Compound 14] | 31 | 7.74 |
| COc1c(C(=O)O)cnn1-c1cccc(-c2cccc(C)c2OCc2ccc3c(c2C)CCN([C@H]2CCOC2)C3)n1 [Compound 105] | <24 | 7.77 |
| COc1c(C(=O)O)cnn1-c1cccc(-c2cccc(C)c2OCc2ccc3c(c2)CCN(C(C)C)C3)n1 [Compound 13] | <24 | 6.74 |
| CCOc1c(C(=O)O)cnn1-c1cccc(-c2cccc(C)c2OCc2ccc3c(c2)CCN([C@@H]2CCOC2)C3)n1 [Compound 112] | <24 | 6.96 |
| CCOc1c(C(=O)O)cnn1-c1cccc(-c2cccc(C)c2OCc2ccc3c(c2C)CCN([C@H]2CCOC2)C3)n1 [Compound 125] | <24 | 7.57 |
| COc1c(C(=O)O)cnn1-c1cccc(-c2cccc(C)c2OCc2ccc3c(c2)CCN([C@H]2CC[C@]4(CCCO4)CC2)C3)n1 [Compound 102] | <24 | 6.96 |
| CCOc1c(C(=O)O)cnn1-c1cccc(-c2cccc(C)c2OCc2ccc3c(c2C)CCN([C@@H]2CCCOC2)C3)n1 [Compound 128] | <24 | 7.82 |
| COc1c(C(=O)O)cnn1-c1cccc(-c2cccc(C)c2OCc2cc3c(cc2C)CN(C2CCOCC2)CC3)n1 [Compound 121] | <24 | 7.40 |
| COc1c(C(=O)O)cnn1-c1cccc(-c2cccc(C)c2OCc2ccc3c(c2C)CCN(C[C@@H]2COCCO2)C3)n1 [Compound 139] | <24 | 8.08 |
| COc1c(C(=O)O)cnn1-c1cccc(-c2cccc(C)c2OCc2ccc3c(c2C)CCN([C@H]2CCCOC2)C3)n1 [Compound 141] | <24 | 7.77 |
| COc1c(C(=O)O)cnn1-c1cccc(-c2cccc(C)c2OCc2ccc3c(c2)CCN([C@H]2CC[C@@]4(CCCO4)CC2)C3)n1 [Compound 103] | 25 | 6.96 |
| CCOc1c(C(=O)O)cnn1-c1cccc(-c2cccc(C)c2OCc2ccc3c(c2C)CCN([C@@H]2CCOC2)C3)n1 [Compound 126] | <24 | 7.24 |
| COc1c(C(=O)O)cnn1-c1cccc(-c2cccc(C)c2OCc2ccc3c(c2C)CCN([C@@H]2CCOC2)C3)n1 [Compound 106] | <24 | 7.57 |
| COc1c(C(=O)O)cnn1-c1cccc(-c2cc(C)ccc2OCc2ccc3c(c2C)CCN(C2CCOCC2)C3)n1 [Compound 124] | <24 | 7.33 |
| COc1c(C(=O)O)cnn1-c1cccc(-c2cccc(C(F)(F)F)c2OCc2ccc3c(c2)CCN(C2COC2)C3)n1 [Compound 9] | <24 | 7.23 |
| CC[C@H](C)Oc1c(C(=O)O)cnn1-c1cccc(-c2cccc(C)c2OCc2ccc3c(c2C)CCN(C2CCOC2)C3)n1 (stereo partly drawn) [Compound 137] | <24 | 7.05 |
| CCOc1c(C(=O)O)cnn1-c1cccc(-c2cccc(C)c2OCc2ccc3c(c2)CCN([C@H]2CCOC2)C3)n1 [Compound 110] | <24 | 7.35 |

Further lines, results first:

| HLM (% Qh) [1] [% Qh] | pEC50 [2] | SMILES |
| --- | --- | --- |
| <24 | 7.52 | COc1c(C(=O)O)cnn1-c1cccc(-c2cccc(C)c2OCc2cc3c(c(C(F)(F)F)c2)CN(C2CCOCC2)CC3)n1 [Compound 158] |
| <24 | 7.07 | CCOc1c(C(=O)O)cnn1-c1cccc(-c2cccc(C)c2OCc2ccc3c(c2C)CCN(C2COC(C)(C)OC2)C3)n1 [Compound 155] |
| 28 | 8.01 | COc1c(C(=O)O)cnn1-c1cccc(-c2cccc(C)c2OCc2ccc3c(c2C)CCN(C2COC2)CC3)n1 [Compound 176] |
| <24 | 6.35 | CCOc1c(C(=O)O)cnn1-c1cccc(-c2cccc(C)c2OCc2ccc3c(c2C)CCN(C(=O)C2CCOCC2)C3)n1 [Compound 147, 5-Ethoxy-1-(6-{3-methyl-2-[5-methyl-2-(tetrahydro-pyran-4-carbonyl)-1,2,3,4-tetrahydro-isoquinolin-6-ylmethoxy]-phenyl}-pyridin-2-yl)-1H-pyrazole-4-carboxylic acid] |
| <24 | 7.59 | CCOc1c(C(=O)O)cnn1-c1cccc(-c2cccc(C)c2OCc2ccc3c(c2C)CCN(C[C@H]2CCCOC2)C3)n1 [Compound 153] |
| <24 | 7.89 | COc1c(C(=O)O)cnn1-c1cccc(-c2cccc(C)c2OCc2cc(C)c3c(c2C)CN(C2CCOCC2)C3)n1 [Compound 145] |
| <24 | 7.80 | COc1c(C(=O)O)cnn1-c1cccc(-c2cccc(C)c2OCc2cc(C)c3c(c2)CCN(C2CCOCC2)C3)n1 [Compound 171] |
| <24 | 7.55 | CCOc1c(C(=O)O)cnn1-c1cccc(-c2cccc(C)c2OCc2ccc3c(c2C)CCN(C[C@H]2COCCO2)C3)n1 [Compound 170] |
| <24 | 6.24 | CCOc1c(C(=O)O)cnn1-c1cccc(-c2cccc(C)c2OCc2ccc3c(c2C)CCN(CCOCCO)C3)n1 [Compound 168] |
| <24 | 7.49 | CCOc1c(C(=O)O)cnn1-c1cccc(-c2cccc(C)c2OCc2ccc3c(c2C)CCN(C2COC2)C3)n1 [Compound 164] |
| <24 | 6.80 | COc1c(C(=O)O)cnn1-c1cccc(-c2cccc(C)c2OCc2cc3c(cc2C)CN(C2CCOCC2)C3)n1 [Compound 143] |
| <24 | 7.23 | CCOc1c(C(=O)O)cnn1-c1cccc(-c2cccc(C)c2OCc2ccc3c(c2C)CCN(C[C@H]2COC(C)(C)O2)C3)n1 [Compound 179] |
| <24 | 7.96 | CCOc1c(C(=O)O)cnn1-c1cccc(-c2cccc(C)c2OCc2ccc3c(c2C(F)(F)F)CCN(C2CCOCC2)C3)n1 [Compound 165] |
| <24 | 7.36 | COCCOc1c(C(=O)O)cnn1-c1cccc(-c2cccc(C)c2OCc2ccc3c(c2C)CCN(C2CCCOC2)C3)n1 (stereo not drawn) [Compound 149] |
| 31 | 7.60 | CCOc1c(C(=O)O)cnn1-c1cccc(-c2cccc(C)c2OCc2cc3c(c(C(F)(F)F)c2)CN(C2CCOCC2)CC3)n1 [Compound 157] |
| <24 | 7.28 | CCOc1c(C(=O)O)cnn1-c1cccc(-c2cccc(C)c2OCc2ccc3c(c2F)CCN(C2CCOCC2)C3)n1 [Compound 159] |
| <24 | 7.89 | CCOc1c(C(=O)O)cnn1-c1cccc(-c2cccc(C)c2OCc2cc(C)c3c(c2)CCN(C2CCCOC2)C3)n1 (stereo not drawn) [Compound 173] |
| <24 | 7.64 | CCOc1c(C(=O)O)cnn1-c1cccc(-c2cccc(C)c2OCc2ccc3c(c2C)CCN(CC2CCCOC2)C3)n1 (stereo not drawn) [Compound 146] |
| 26 | 7.64 | CCOc1c(C(=O)O)cnn1-c1cccc(-c2cccc(C)c2OCc2ccc3c(c2C)CCN(C2CCOCC2)CC3)n1 [Compound 162] |
| <24 | 7.89 | CCOc1c(C(=O)O)cnn1-c1cccc(-c2cccc(C)c2OCc2cc(C)c3c(c2)CCN(C2CCOCC2)C3)n1 [Compound 169] |
